Common to all, as to assay type: cell-based
For one test, the system named is Pseudomonas aeruginosa. Briefly: Disk diffusion assay on agar plates. Details: key: “+” active; “−” not active. The text has this:
(§1) Microorganisms: Laboratory strains of bacteria and fungus were obtained from Dr. Neil Towers' and Dr. Jovel's lab, The University of British Columbia. Seven species of bacteria and one species of fungus will be used in the screening process. The bacteria strains consisted of Staphylococcus aureus, methicillin resistant Staphylococcus aureus, Bacillus subtilis and Enterococcus faecalis, Escherichia coli, Pseudomonas aeruginosa, and Salmonella typhimurium. The fungal species was Candida albicans.
(§2) Methods: Disk diffusion assay on agar plates inoculated with the organisms being studies. The plates were divided into quadrants or sixths using a black marking pen. In quadrant 1 and 2, negative and positive controls were run (no treatment and gentamicin). Test compounds were run on the remaining available portions.

Test [1] deals with Seven species of bacteria and one species of fungus. Briefly: Disk diffusion assay, whole panel. Conditions: all bacteria and fungus of the screening.
Source text: as §1, §2

For the next test, the system named is Candida albicans. Briefly: Disk diffusion assay on agar plates. Details: key: “+” active; “−” not active.
Source text: as §1, §2

Another test concerns Enterococcus faecalis. Briefly: Disk diffusion assay on agar plates. Details: key: “+” active; “−” not active.
Source text: as §1, §2

The values below come from patent US20090283473A1, “PLANT MATERIALS EXTRACTION METHOD” (Xylon Biotechnologies Ltd., priority 2002, published 2009).

With `CC1(C)C=CC=C(C(=O)O)C=C1` [Thujic acid standard, Thujic acid], the “Anti-microbial activity P.a” value in the test on Pseudomonas aeruginosa was “−”. Moreover, in test [1], the “anti-microbial activity across the panel (in words)” value is “showed activities against some bacteria and fungus”.

For the molecule Gentamicin, the “Anti-microbial activity C.a” value in the test with Candida albicans is “−”. The “Anti-microbial activity E.f.” value with Enterococcus faecalis is on record as “+”. In test [1], the “anti-microbial activity across the panel (in words)” value is on record as “active against all the tested bacteria but not against C. albicans”.

Consider `CC(C)c1cccc(=O)c(O)c1` [Hinokitiol standard, 2,4,6-Cycloheptatrien-1-one,2-hydroxy-4-(1-methylethyl)], for which, in test [1], the “anti-microbial activity across the panel (in words)” value is “demonstrated activities against all the bacteria and fungus”.
